# Test results published in PMC9643865, “Bromo-protopine, a novel protopine derivative, alleviates tau pathology by activating chaperone-mediated autophagy for Alzheimer’s disease therapy” (Frontiers in Molecular Biosciences, 2022).
# Like-named read-outs stand apart in the source and are kept apart here.
# What was measured:
# [1] = Pharmacokinetic study in brain and plasma after oral dosing, LC-MS/MS; assay type: in vivo, ICR mice
# Method: To determine the amount of PRO-Br in the brain, a pharmacokinetic study was performed employing 3-month-old female ICR mice (n = 6, 30 ± 2 g). PRO-Br (10 mg/kg b. wt) was injected orally. Brain tissues and blood samples (intracardial) were collected at various time-points (0, 15, 30, 45, 60, 75, 120, 240, 360, 480 min). Brain tissues and plasma samples were kept at −80°C until analysis. On the day of analysing the samples, the brain tissues were thawed on ice and half brain tissue was taken for analysis. To 200 mg of tissue, 4 times the volume of methanol (100%) was added, and homogenized until a clear solution was observed. The samples were centrifuged at 15,000 RPM for 10 min at 4°C. The supernatant was separated and analyzed using LC-MS/MS.
# Quantification of PRO-Br in mice brains was performed by Agilent 6410 LC-ESI-Triple-Quad/TOF. The mobile phase (A) consisted of water with 0.1% formic acid, and the mobile phase (B) consisted of acetonitrile with 0.1% formic acid (B). C18 column was used to elute the desired solutes, based on the protocol: 0–5 min, 23–50% B; 5–15 min, 50–60% B; 15–15.01 min, 60–95% B; 15.01–22 min, 95% B. The ions of PRO-Br were detected in positive ionization mode. Multiple reaction monitoring (MRM) mode was used to monitor the analytes of PRO-Br.
# P301S mice [2] = assay: Rotarod test; assay type: in vivo; conditions: oral, 2.5 months, vs Tg-Vehicle
# Method: (§1) Female homozygous P301S mice bearing the transgene for MAPT (P301S), were generous gifts from Michael Goedert. P301S-tau mice (1.5-month-old, n = 8) were administered with PRO-Br daily for 2.5 months. The mice models employed in the study were maintained under 12 h light-dark cycles and were provided ad libitum access to chow and water.
# Motor behavior was assessed by the rotarod test (Harvard apparatus, SeDaCom v2.0.000) and was performed according to the procedure described previously ([Song et al., 2020]). The study mice were brought into the experimental room 30 min before the test. The training was conducted with a constant speed of 4, 8, and 12 rpm on days 1, 2, and 3, respectively. Three trials were conducted each day and the performance was monitored. On the fourth day, an acceleration mode (4–40 rpm in 5 min) was introduced, and the time spent (s) by each mouse on the rod was recorded by the instrument connected to a computer.
# P301S mice [3] = assay: Brain immunoblotting (sarkosyl tau fractions, chaperones, LAMP2A) and IHC; assay type: in vivo
# Method: as §1
# Brain tissues from experimental mice were carefully isolated, washed with 1X PBS, and fixed with 4% paraformaldehyde. Post-fixation for 48 h, brain tissues were transferred to 30% sucrose solution for cryopreservation. Tissue sections (30 μm) were obtained using a cryotome, maintained at a constant -30°C. Permeabilization was performed with 0.4% triton-X-100 for 10 min. For tau immunofluorescence, PHF1 primary antibody was added, and sections were kept overnight at four°C. The following day, an appropriate secondary antibody was added at RT for 1.5 h. DAPI was used as a nuclear stain for 5 min. For DAB staining, AT8 primary antibody was added to the sections overnight. The next day, an appropriate secondary antibody was added for 1.5 h. Staining was performed by employing a Vectastain-ELITE ABC-HRP kit according to the manufacturer’s procedure. […] Images of cortical/hippocampal regions were taken with an Eclipse 80i fluorescence microscope (Nikon Instruments Inc.). […] The captured images were quantified using ImageJ (NIH) software.
# Brain tissues of 3xTg-AD and P301S mice were separated, sagittally, into equal halves. […] Protein lysates were evaluated for changes in levels of phospho epitopes of tau (AT8, CP13, PHF-1, MC-1, and ALZ50), and for total htau (HT7) using Western blot.
# After PRO-Br treatment, cells were solubilised using cold RIPA lysis buffer (9803, Life Technologies), containing protease and phosphatase inhibitor tablets. […] Total protein concentration was determined by BCA protein assay, and the samples were separated on SDS-PAGE and transferred to PVDF membranes. […] Films were scanned, and the relative intensities of the signals were analyzed using ImageJ software.
# 3xTg-AD mice = assay: as above; assay type: in vivo
# Method: Female homozygous 3xTg-AD mice carrying transgenes for APP (Swedish KM670/671Nl), MAPT (tauP301L) and Psen1 (M146V) were procured from Jackson’s Laboratory (# 004807). The transgenic mice colonies were bred and maintained in the HKBU animal house at 23 ± 2 °C, 60 ± 15% relative humidity with regular access to food and water. Seven-month-old 3xTg-AD mice were randomly segregated into three treatment groups: Tg-Vehicle, 1 mg/kg, and 2.5 mg/kg PRO-Br. PRO-Br was administered orally for 8 months (n = 8). The bodyweight of mice from all the groups was recorded once every week.
# Brain tissues from experimental mice were carefully isolated, washed with 1X PBS, and fixed with 4% paraformaldehyde. Post-fixation for 48 h, brain tissues were transferred to 30% sucrose solution for cryopreservation. Tissue sections (30 μm) were obtained using a cryotome, maintained at a constant -30°C. Permeabilization was performed with 0.4% triton-X-100 for 10 min. For tau immunofluorescence, PHF1 primary antibody was added, and sections were kept overnight at four°C. The following day, an appropriate secondary antibody was added at RT for 1.5 h. DAPI was used as a nuclear stain for 5 min. For DAB staining, AT8 primary antibody was added to the sections overnight. The next day, an appropriate secondary antibody was added for 1.5 h. Staining was performed by employing a Vectastain-ELITE ABC-HRP kit according to the manufacturer’s procedure. The stained sections were carefully arranged on glass slides and mounted with an appropriate mounting medium under a coverslip. Images of cortical/hippocampal regions were taken with an Eclipse 80i fluorescence microscope (Nikon Instruments Inc.). The threshold was adjusted to remove the background staining. The captured images were quantified using ImageJ (NIH) software.
# Brain tissues of 3xTg-AD and P301S mice were separated, sagittally, into equal halves. One-half was lysed with tissue lysis buffer augmented with phosphatase and protease inhibitor cocktail tablets, while the other half was used for immunohistochemical analysis. Brain tissues were homogenized on ice using an Ultra Turrax tissue homogenizer. Brain tissue homogenate was subjected to sarkosyl differential centrifugation with 1% sarkosyl to separate the non-pathogenic soluble and pathogenic insoluble tau fractions. Protein lysates were evaluated for changes in levels of phospho epitopes of tau (AT8, CP13, PHF-1, MC-1, and ALZ50), and for total htau (HT7) using Western blot.
# After PRO-Br treatment, cells were solubilised using cold RIPA lysis buffer (9803, Life Technologies), containing protease and phosphatase inhibitor tablets. Cells were sonicated and centrifuged at 14000 rpm for 15 min. Total protein concentration was determined by BCA protein assay, and the samples were separated on SDS-PAGE and transferred to PVDF membranes. The membranes were blocked, washed, and incubated with primary antibodies (Table 1), and incubated at 4°C, overnight. The membranes were further incubated with the required dilutions of secondary antibody for 1 h, at RT. The chemiluminescent signals were captured using x-ray film in a darkroom, with an appropriate chemiluminescent substrate kit (ThermoFisher Scientific, United States). Films were scanned, and the relative intensities of the signals were analyzed using ImageJ software.
compound,measurement,setting,value
"CN1CCc2cc3c(cc2C(=O)Cc2c(Br)cc4c(c2C1)OCO4)OCO3 [PRO-Br, bromo-protopine]",time retained in the brain,"[1]; 10 mg/kg oral, female ICR mice, brain",4.2 h
same,brain penetrating efficacy,[1]; compared to PRO,superior compared to its parent compound
same,Kp,"[1]; mouse, brain, 10 mg/kg oral, female ICR mice, read-out: brain/plasma ratio",8.08
same,Cmax,"[1]; mouse, 10 mg/kg oral, female ICR mice, brain, read-out: maximum concentration (Cmax) in the brain",425 ng/g
same,Tmax,"[1]; mouse, 10 mg/kg oral, female ICR mice, brain, read-out: maximum time (Tmax) in the brain (converted)",30 min
same,Cmax,"[1]; mouse, 10 mg/kg oral, female ICR mice, plasma, read-out: Cmax in the plasma",91.9 ng/mL
same,Tmax,"[1]; mouse, 10 mg/kg oral, female ICR mice, plasma, read-out: Tmax in the plasma (converted)",15 min
same,latency of falling (rotarod),P301S mice [2],latency of falling was significantly enhanced
same,AT8- and PHF1-positive cell counts,P301S mice [3]; IHC,significantly reduced
same,expression of sarkosyl-insoluble phospho-tau variants,"P301S mice [3]; brain, immunoblotting",specifically reduced the expression of sarkosyl-insoluble phospho-tau variants in a dose-dependent manner
same,protein expression of LAMP2A,"P301S mice [3]; brain, immunoblotting",dose-dependently increased
same,AT8-positive cell count in the cortico-hippocampal regions,"3xTg-AD mice; 1.0 and 2.5 mg/kg, IHC",significantly reduced AT8-positive cell count
same,acetylation of HSP90 (K294),"3xTg-AD mice; brain, immunoblotting",dose-dependently enhanced the acetylation of HSP90 (K294)
same,expression of sarkosyl-insoluble phospho-tau variants,"3xTg-AD mice; brain, immunoblotting",specifically reduced the expression of sarkosyl-insoluble phospho-tau variants in a dose-dependent manner
same,heat shock proteins HSP70 and HSC70,"3xTg-AD mice; brain, immunoblotting",dose-dependently increased the heat shock proteins HSP70 and HSC70
same,protein expression of LAMP2A,"3xTg-AD mice; brain, immunoblotting",dose-dependently increased
